Source: publication PMC8623647 (Pharmaceuticals, 2021)
Where “and” joins values, the source holds several entries; their conditions need not be identical. Equal values may be shown once. Entries after “also recorded” stand apart in the source; their conditions may differ. Read-outs that look alike come from different tables or passages of the source.

How the values were obtained:
recombinant human MAO-A = target: T1, recombinant human MAO-A (Homo sapiens, UniProt P21397); assay: MAO-A enzyme inhibition (kynuramine substrate, 316 nm); settings: for remaining activity at 10 µM: read-out: Residual Activity at 10 µM (%) MAO-A
T1 sequence (P21397 1-527): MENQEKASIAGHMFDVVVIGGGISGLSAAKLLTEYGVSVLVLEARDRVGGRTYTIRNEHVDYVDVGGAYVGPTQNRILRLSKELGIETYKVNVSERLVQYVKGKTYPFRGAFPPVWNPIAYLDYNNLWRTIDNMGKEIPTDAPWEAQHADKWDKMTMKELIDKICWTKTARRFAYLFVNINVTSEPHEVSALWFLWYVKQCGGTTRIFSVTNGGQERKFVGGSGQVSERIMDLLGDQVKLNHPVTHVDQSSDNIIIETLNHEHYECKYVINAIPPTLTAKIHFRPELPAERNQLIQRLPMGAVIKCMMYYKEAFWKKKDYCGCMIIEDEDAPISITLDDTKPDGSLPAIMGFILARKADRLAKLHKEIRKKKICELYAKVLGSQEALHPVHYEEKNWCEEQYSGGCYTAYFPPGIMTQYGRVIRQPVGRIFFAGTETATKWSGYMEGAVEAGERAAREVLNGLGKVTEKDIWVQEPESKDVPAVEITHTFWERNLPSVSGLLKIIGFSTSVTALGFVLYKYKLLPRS
Procedure: (§4) MAO activity assays were performed using recombinant human MAO-A or MAO-B.
(§5) IC50 values were determined by measuring residual enzyme activities.

MAO-B [1] = target: T2, MAO-B (Homo sapiens, UniProt P27338); assay: MAO-B enzyme inhibition (benzylamine substrate, 250 nm); settings: for SI (hMAO-B selectivity index): IC50(hMAO-A) divided by IC50(hMAO-B); for remaining activity at 10 µM: read-out: Residual Activity at 10 µM (%) MAO-B; for Times more potent than the reference drug lazabemide (MAO-B) / Times more potent than pargyline (MAO-B): ratio of MAO-B IC50 values
T2 sequence (P27338 1-520): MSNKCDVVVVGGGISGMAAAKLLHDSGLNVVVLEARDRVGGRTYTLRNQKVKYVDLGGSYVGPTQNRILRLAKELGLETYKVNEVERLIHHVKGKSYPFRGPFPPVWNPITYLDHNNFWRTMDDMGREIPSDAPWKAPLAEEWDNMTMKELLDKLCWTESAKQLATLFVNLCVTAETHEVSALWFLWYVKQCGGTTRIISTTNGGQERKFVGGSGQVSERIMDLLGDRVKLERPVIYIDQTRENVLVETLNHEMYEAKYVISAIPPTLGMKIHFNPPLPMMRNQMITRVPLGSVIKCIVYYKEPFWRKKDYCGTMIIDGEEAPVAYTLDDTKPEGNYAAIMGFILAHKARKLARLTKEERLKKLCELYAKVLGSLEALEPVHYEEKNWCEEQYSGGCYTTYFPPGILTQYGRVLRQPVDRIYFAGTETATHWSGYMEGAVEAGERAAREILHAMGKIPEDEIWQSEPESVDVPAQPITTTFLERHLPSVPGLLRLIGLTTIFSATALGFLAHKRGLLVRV
Procedure: as §4, §5

[2] = BBB permeation by parallel artificial membrane permeability assay (PAMPA); format: in vitro ADME; settings: for Prediction (BBB permeation): PAMPA-BBB class from Pe; for Papp: PAMPA-BBB, read-out: Experimental Pe
Excerpt: The CNS bioavailability of the lead candidates was further ascertained by PAMPA method [31].

MAO-B [3] = target: T2, MAO-B; assay: Reversibility of MAO-B inhibition by dialysis; format: biochemical
Procedure: The reversibilities of MAO-B inhibitions by TM1 and TM8 were assessed by dialysis. […] Reversibility patterns were determined by comparing the activities of dialyzed (AD) and undialyzed (AU) samples.

[4] = Cytotoxicity by MTT assay; format: cell-based, African Green Monkey; settings: African green monkey, Vero cells (kidney); Vero cells treated at effective concentrations; read-out: Cells remaining viable
Procedure: (§1) African Green Monkey kidney cells (VERO cells) were used to evaluate the cytotoxic effects of TM1 and TM8. Cells were incubated with different doses (1 µg/mL to 500 µg/mL) of the two compounds for 48 h, and relative cell viabilities were determined by MTT assay.
(§2) The cytotoxicities and ROS quenching abilities of the two lead compounds (TM1 and TM8) were evaluated as previously described.
(§3) Figure 4 Effect of TM1 on Vero cell viability. (a) cell viability treated with TM1; (b) dose-response curve; (c) phase contrast microscope images of Vero cells treated with different concentrations of TM1. Cells were treated with TM1 for 48 h and cell viabilities were assessed by MTT assay as described in Section 4.
as §3, with “Figure 5” for “Figure 4”, “of TM8” for “of TM1”, “with TM8;” for “with TM1;”, “of TM8.” for “of TM1.”, “with TM8” for “with TM1”

Vero cells [5] = assay: Cytotoxicity by MTT assay; format: cell-based, African Green Monkey; settings: Chlorocebus sabaeus, Vero, 48 h, MTT assay, read-out: IC50 for Vero cell viability
Procedure: as §1, §2, §3
as §3, with “Figure 5” for “Figure 4”, “of TM8” for “of TM1”, “with TM8;” for “with TM1;”, “of TM8.” for “of TM1.”, “with TM8” for “with TM1”

Vero cells [6] = assay: ROS assay (H2O2-induced ROS levels); format: cell-based, African Green Monkey; settings: compound at its IC50 value, exogenous H2O2
Procedure: ROS increase vulnerability to neuronal damage by causing oxidative damage in the brain during neurodegenerative diseases.
as §2
Figure 6 Effects of TM1 (a) and TM8 (b) on H2O2-induced ROS levels. Vero cells (1 × 10^6 cells/mL) were pre-incubated with 100 μg/mL of 30% H2O2 and ROS production was evaluated immediately as described in Section 4.

Row | SMILES | IC50 (recombinant human MAO-A) [µM] | remaining activity at 10 µM (recombinant human MAO-A) [%] | IC50 (MAO-B [1]) [µM] | SI (hMAO-B selectivity index) (MAO-B [1]) | remaining activity at 10 µM (MAO-B [1]) [%] | Times more potent than the reference drug lazabemide (MAO-B) (MAO-B [1]) [times] | Papp [2] [×10⁻⁶ cm/s] | Times more potent than pargyline (MAO-B) (MAO-B [1]) | MAO-B activity of dialyzed sample (AD) (MAO-B [3]; after dialysis, test compounds […], lazabemide 0.20 µM, pargyline 0.30 µM) [%] | Reversibility of MAO-B inhibition (MAO-B [3]; dialysis-based method) | MAO-B activity of undialyzed sample (AU) (MAO-B [3]; preincubated 30 min, test compounds […], lazabemide 0.20 µM, pargyline 0.30 µM) [%] | Blood-brain barrier permeability in words ([2]; PAMPA) | Prediction (BBB permeation) [2] | viability at 48 h [4] [%] | IC50 (Vero cells [5]; converted from µg/mL) [µM] | IC50 (Vero cells [5]) [µg/mL] | Effect on H2O2-induced intracellular ROS levels (Vero cells [6])
1 | CSc1ccc(C(=O)/C=C/c2ccc(N(C)C)cc2)cc1 [TM5] | 5.91 ± 0.87 | 47.9 ± 3.7 | 0.12 ± 0.011 | 49.3 | 1.6 ± 1.1 |  |  |  |  |  |  |  |  |  |  |  | 
2 | CCc1ccc(/C=C/C(=O)c2ccc(SC)cc2)cc1 [TM6] | 6.71 ± 0.75 | 49.4 ± 8.7 | 0.13 ± 0.005 | 51.6 | -9.5 |  |  |  |  |  |  |  |  |  |  |  | 
3 | CSc1ccc(C(=O)/C=C/c2ccc([N+](=O)[O-])cc2)cc1 [TM7] | 30 ± 3.02 | 66.1 ± 2.6 | 0.023 ± 0.001 | 1304 and 1304.3 | 6 ± 1.9 | 2.7 | 15.5 ± 0.71 | almost as potent as pargyline |  |  |  |  | CNS+ (CNS+ (high BBB permeation predicted): Pe (10^−6 cm·s^−1) > 4.00) |  |  |  | 
4 | CSc1ccc(C(=O)/C=C/c2ccc(Br)cc2)cc1 [TM9] | 33.6 ± 2.56 | 74.7 | 0.088 ± 0.006 | 381.8 | 7.5 ± 2.1 |  |  |  |  |  |  |  |  |  |  |  | 

More lines, main results first:

Row | IC50 (recombinant human MAO-A) [µM] | remaining activity at 10 µM (recombinant human MAO-A) [%] | IC50 (MAO-B [1]) [µM] | SI (hMAO-B selectivity index) (MAO-B [1]) | remaining activity at 10 µM (MAO-B [1]) [%] | Times more potent than the reference drug lazabemide (MAO-B) (MAO-B [1]) [times] | Papp [2] [×10⁻⁶ cm/s] | Times more potent than pargyline (MAO-B) (MAO-B [1]) | MAO-B activity of dialyzed sample (AD) (MAO-B [3]; after dialysis, test compounds […], lazabemide 0.20 µM, pargyline 0.30 µM) [%] | Reversibility of MAO-B inhibition (MAO-B [3]; dialysis-based method) | MAO-B activity of undialyzed sample (AU) (MAO-B [3]; preincubated 30 min, test compounds […], lazabemide 0.20 µM, pargyline 0.30 µM) [%] | Blood-brain barrier permeability in words ([2]; PAMPA) | SMILES | Prediction (BBB permeation) [2] | viability at 48 h [4] [%] | IC50 (Vero cells [5]; converted from µg/mL) [µM] | IC50 (Vero cells [5]) [µg/mL] | Effect on H2O2-induced intracellular ROS levels (Vero cells [6])
5 | 8.82 ± 0.09 | 44.6 ± 1.9 | 0.088 ± 0.011 | 100.2 | 6.9 |  |  |  |  |  |  |  | COc1ccc(/C=C/C(=O)c2ccc(SC)cc2)cc1 [TM3] |  |  |  |  | 
6 | 12 ± 0.99 | 71.6 ± 3.8 | 0.058 ± 0.001 | 206.9 | 14.7 ± 2.8 | 1.1 |  |  |  |  |  |  | CSc1ccc(C(=O)/C=C/c2ccc(C)cc2)cc1 [TM4] |  |  |  |  | 
7 | 48.6 ± 3.44 | 77.4 ± 8.2 | 0.01 ± 0.005 |  | 4.1 ± 0.5 | 6.3 | 16.3 ± 0.26 | 2.8 times | 69.3 | reversible MAO-B inhibitors | 33.1 | high blood-brain barrier permeabilities | CSc1ccc(C(=O)/C=C/c2ccc(Cl)cc2)cc1 [TM8] | CNS+ (CNS+ (high BBB permeation predicted): Pe (10^−6 cm·s^−1) > 4.00) | > 90 | 402 | 116 | significantly reduced reactive oxygen species (ROS) levels; also recorded: appreciably lower ROS levels; also recorded: mitigated H2O2-induced increases in ROS levels
8 | 13.7 ± 1.22 | 57.9 ± 6 | 0.026 ± 0.004 | 526.9 | -0.4 ± 2.7 | 2.4 | 15.2 ± 0.44 | almost as potent as pargyline |  |  |  |  | CSc1ccc(C(=O)/C=C/c2ccc(F)cc2)cc1 [TM10] | CNS+ (CNS+ (high BBB permeation predicted): Pe (10^−6 cm·s^−1) > 4.00) |  |  |  | 
9 | 25.2 ± 0.14 | 79.5 ± 0.7 | 0.081 ± 0.032 | 311.1 | 7.4 ± 1.2 |  |  |  |  |  |  |  | CSc1ccc(C(=O)/C=C/c2ccc(C(F)(F)F)cc2)cc1 [TM11] |  |  |  |  | 
